Assay results from ChEMBL document CHEMBL4610120, “New Broad-Spectrum Antibiotics Containing a Pyrrolobenzodiazepine Ring with Activity against Multidrug-Resistant Gram-Negative Bacteria” (J Med Chem, 2020).
In brackets after ≈: the same amount, converted by molar mass. Activity calls are given as the source filed them. The rule behind the calls is not given here.

Tests used:
[1] = Cytotoxicity against human WI38 cells assessed as cell viability at 20 uM measured after 24 hrs by MTT assay relative to control; format: cell-based, WI-38; conditions: read-out: Activity
[2] = Selectivity ratio of cytotoxicity against human WI38 cells to MIC for methicillin sensitive Staphylococcus aureus NCTC 6571; format: toxicity, cell-based
[3] = Selectivity ratio of cytotoxicity against human WI38 cells to MIC for Acinetobacter baumannii ATCC 17978; format: toxicity, cell-based
[4] = Selectivity ratio of cytotoxicity against human WI38 cells to MIC for multidrug-resistant Acinetobacter baumannii AYE; format: toxicity, cell-based
[5] = tested on: Acinetobacter baumannii; assay: Antimicrobial activity against Acinetobacter baumannii ATCC 17978 by microdilution broth method; format: functional
[6] = tested on: DNA; assay: Stabilization of 5'-FAM-TAT-ATA-TAG-ATA-TTT-TTT-TAT-CTA-TAT-ATA-3'-TAMRA DNA (unknown origin) assessed as reduction in change in melting temperature at 1:1 to 5:1 ligand to DNA ratio measured after 3 hrs by FRET-based assay relative to control; format: ADME, nucleic-acid assay
[7] = Selectivity ratio of cytotoxicity against human WI38 cells to MIC for Pseudomonas aeruginosa PAO1; format: toxicity, cell-based
[8] = Selectivity ratio of cytotoxicity against human WI38 cells to MIC for multidrug-resistant Pseudomonas aeruginosa NCTC 13437; format: toxicity, cell-based
[9] = tested on: Staphylococcus aureus; assay: Antibacterial activity against methicillin sensitive Staphylococcus aureus NCTC 6571 by microdilution broth method; format: functional
[10] = Selectivity ratio of cytotoxicity against human WI38 cells to MIC for vancomycin resistant Enterococcus faecalis NCTC 12201; format: toxicity, cell-based
[11] = Selectivity ratio of cytotoxicity against human WI38 cells to MIC for methicillin resistant Staphylococcus aureus NCTC 13277; format: toxicity, cell-based
[12] = tested on: Staphylococcus aureus; assay: Antibacterial activity against methicillin resistant Staphylococcus aureus NCTC 13616 by microdilution broth method; format: functional
[13] = Selectivity ratio of cytotoxicity against human WI38 cells to MIC for Klebsiella pneumoniae M6; format: toxicity, cell-based
[14] = Selectivity ratio of cytotoxicity against human WI38 cells to MIC for methicillin resistant Staphylococcus aureus NCTC 13616; format: toxicity, cell-based
[15] = tested on: DNA; assay: Stabilization of 5'-FAM-TAT-AGA-TAT-AGA-TAT-TTT-ATA-TCT-ATA-TCT-ATA-3'-TAMRA DNA (unknown origin) assessed as reduction in change in melting temperature at 1:1 to 5:1 ligand to DNA ratio measured after 3 hrs by FRET-based assay relative to control; format: ADME, nucleic-acid assay
[16] = tested on: Staphylococcus aureus; assay: Antibacterial activity against methicillin resistant Staphylococcus aureus NCTC 13277 by microdilution broth method; format: functional
[17] = Selectivity ratio of cytotoxicity against human WI38 cells to MIC for vancomycin sensitive Enterococcus faecalis NCTC 775; format: toxicity, cell-based
[18] = tested on: Enterococcus faecium; assay: Antibacterial activity against vancomycin resistant Enterococcus faecium NCTC 12204 by microdilution broth method; format: functional
[19] = tested on: Enterococcus faecalis; assay: Antibacterial activity against vancomycin sensitive Enterococcus faecalis NCTC 775 by microdilution broth method; format: functional
[20] = Selectivity ratio of cytotoxicity against human WI38 cells to MIC for vancomycin resistant Enterococcus faecium NCTC 12204; format: toxicity, cell-based
[21] = Selectivity ratio of cytotoxicity against human WI38 cells to MIC for multidrug-resistant Klebsiella pneumoniae NCTC 13368; format: toxicity, cell-based
[22] = tested on: Enterococcus faecalis; assay: Antibacterial activity against vancomycin resistant Enterococcus faecalis NCTC 12201 by microdilution broth method; format: functional
[23] = tested on: Pseudomonas aeruginosa; assay: Antimicrobial activity against Pseudomonas aeruginosa PAO1 by microdilution broth method; format: functional
[24] = molecular target: T1, DNA repair protein RecN (Escherichia coli) (UniProt P05824); assay: Induction of Escherichia coli K12 MG1655 recN promotor measured at 30 mins interval for 20 hrs by fluorescence assay relative to control; conditions: Escherichia coli str. K-12 substr. MG1655
T1 sequence (whole entry): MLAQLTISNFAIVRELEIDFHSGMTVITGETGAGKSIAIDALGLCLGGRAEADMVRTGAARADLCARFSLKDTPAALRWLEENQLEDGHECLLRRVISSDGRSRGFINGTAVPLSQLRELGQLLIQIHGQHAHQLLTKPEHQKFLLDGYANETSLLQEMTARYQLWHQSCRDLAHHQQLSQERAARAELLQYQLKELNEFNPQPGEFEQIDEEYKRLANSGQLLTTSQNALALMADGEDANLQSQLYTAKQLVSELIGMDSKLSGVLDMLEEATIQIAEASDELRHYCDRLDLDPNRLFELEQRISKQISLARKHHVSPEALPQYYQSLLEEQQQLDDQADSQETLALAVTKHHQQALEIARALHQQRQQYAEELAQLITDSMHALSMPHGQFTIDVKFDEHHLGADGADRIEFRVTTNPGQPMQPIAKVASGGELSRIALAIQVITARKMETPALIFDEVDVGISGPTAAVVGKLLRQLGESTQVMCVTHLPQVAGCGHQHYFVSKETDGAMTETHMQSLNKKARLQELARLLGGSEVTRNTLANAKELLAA

[25] = molecular target: T2, Cell division inhibitor SulA (Escherichia coli K-12) (UniProt P0AFZ5); assay: Induction of Escherichia coli K12 MG1655 sulA promotor measured at 30 mins interval for 20 hrs by fluorescence assay relative to control; conditions: Escherichia coli str. K-12 substr. MG1655
T2 sequence (whole entry): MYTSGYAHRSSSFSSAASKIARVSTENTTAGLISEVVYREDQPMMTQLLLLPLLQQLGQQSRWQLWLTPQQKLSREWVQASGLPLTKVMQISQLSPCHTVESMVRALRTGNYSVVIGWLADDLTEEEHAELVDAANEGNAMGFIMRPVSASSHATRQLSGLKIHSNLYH

[26] = molecular target: T3, LexA repressor (Escherichia coli) (UniProt P0A7C2); assay: Induction of Escherichia coli K12 MG1655 lexA promotor measured at 30 mins interval for 20 hrs by fluorescence assay relative to control; conditions: Escherichia coli str. K-12 substr. MG1655
T3 sequence (whole entry): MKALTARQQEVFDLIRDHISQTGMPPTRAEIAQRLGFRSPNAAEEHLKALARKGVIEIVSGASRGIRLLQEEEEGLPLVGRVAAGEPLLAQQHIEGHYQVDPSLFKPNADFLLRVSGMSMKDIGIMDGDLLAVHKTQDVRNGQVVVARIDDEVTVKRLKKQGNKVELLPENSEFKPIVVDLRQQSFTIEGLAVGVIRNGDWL

[27] = molecular target: T4, Protein RecA (Escherichia coli K-12) (UniProt P0A7G6); assay: Induction of Escherichia coli K12 MG1655 recA promotor measured at 30 mins interval for 20 hrs by fluorescence assay relative to control; conditions: Escherichia coli str. K-12 substr. MG1655
T4 sequence (whole entry): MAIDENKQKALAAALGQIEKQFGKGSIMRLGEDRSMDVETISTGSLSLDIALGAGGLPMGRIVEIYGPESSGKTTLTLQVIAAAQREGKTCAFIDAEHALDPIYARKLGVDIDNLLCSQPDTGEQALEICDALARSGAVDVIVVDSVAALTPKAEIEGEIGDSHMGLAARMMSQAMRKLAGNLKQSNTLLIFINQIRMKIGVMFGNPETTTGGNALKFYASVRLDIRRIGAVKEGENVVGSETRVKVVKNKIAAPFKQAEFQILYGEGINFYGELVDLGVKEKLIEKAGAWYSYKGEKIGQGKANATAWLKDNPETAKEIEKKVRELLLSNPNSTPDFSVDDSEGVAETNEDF

For `COc1cc2c(cc1OCCCC(=O)Nc1cc(C(=O)Nc3ccc4sc(C(=O)N5CCSCC5)cc4c3)n(C)c1)N=C[C@@H]1CCCN1C2=O`, the viability at 24 h, 20 µM [1] was > 85%, the selectivity ratio [2] was 100 and the selectivity ratio [3] was 10. It also gave a selectivity ratio [4] of 10, an MIC [5] of 2 µg/mL (≈ 2.8 µM) and a fold change (FC) [6] of 3 to 4. For the same molecule, the selectivity ratio [7] was 10, the selectivity ratio [8] was 10 and the MIC [9] was ≤ 0.125 µg/mL. For the same molecule, the selectivity ratio [10] was 100, the selectivity ratio [11] was 100 and the MIC [12] was ≤ 0.125 µg/mL. For the same molecule, the selectivity ratio [13] was 10, the selectivity ratio [14] was 100 and the fold change (FC) [15] was 3 to 4. The MIC [16] was ≤ 0.125 µg/mL, the selectivity ratio [17] was 100 and the MIC [18] was ≤ 0.125 µg/mL. For the same molecule, the MIC [19] was ≤ 0.125 µg/mL, the selectivity ratio [20] was 100 and the selectivity ratio [21] was 10. The MIC [22] was ≤ 0.125 µg/mL and the MIC [23] was 64 µg/mL (≈ 89.5 µM).

In the case of `COc1cc2c(cc1OCCCC(=O)Nc1cc(C(=O)Nc3ccc4oc(C(=O)N5CCOCC5)cc4c3)n(C)c1)N=C[C@@H]1CCCN1C2=O`, the viability at 24 h, 20 µM [1] is reported as > 85%, the selectivity ratio [2] is reported as 100 and the selectivity ratio [3] is reported as 10. For the same molecule, the selectivity ratio [4] was 10, the MIC [5] was 8 µg/mL (≈ 11.7 µM) and the fold change (FC) [6] was 3 to 4. For the same molecule, the selectivity ratio [7] was 10, the selectivity ratio [8] was 10 and the MIC [9] was ≤ 0.125 µg/mL. The selectivity ratio [10] was 100, the selectivity ratio [11] was 100 and the MIC [12] was ≤ 0.125 µg/mL. It also gave a selectivity ratio [13] of 10, a selectivity ratio [14] of 100 and a fold change (FC) [15] of 3 to 4. The selectivity ratio [17] was 100, the MIC [18] was ≤ 0.125 µg/mL and the MIC [19] was ≤ 0.125 µg/mL. The selectivity ratio [20] was 100, the selectivity ratio [21] was 10 and the MIC [22] was ≤ 0.125 µg/mL. For the same molecule, the MIC [23] was > 128 µg/mL.

For `C[C@H]1COc2c(N3CCN(C)CC3)c(F)cc3c(=O)c(C(=O)O)cn1c23`, the fold change (FC) [24] was 14 to 32, the fold change (FC) [25] was 17 to 41 and the fold change (FC) [26] was 5 to 13. The fold change (FC) [27] was 20 to 35.

With `C[C@H]1c2cccc(O)c2C(=O)C2=C(O)[C@]3(O)C(=O)C(C(N)=O)=C(O)[C@@H](N(C)C)[C@@H]3[C@@H](O)[C@@H]21` the Activity [24] was “inactive”, the Activity [25] was “inactive” and the Activity [26] was “inactive”. The Activity [27] was “inactive”.

`CCn1cc(C(=O)O)c(=O)c2cc(F)c(N3CCNCC3)cc21` gave a fold change (FC) [24] of 14 to 32, a fold change (FC) [25] of 17 to 41 and a fold change (FC) [26] of 5 to 13. It also gave a fold change (FC) [27] of 20 to 35.
